{"source": "patent US6355799B1", "about": "“Substituted benzene compounds, process for their preparation, and herbicidal and defoliant compositions containing them” (ISK Americas Incorporated, priority 1997, dated 2002)", "type_in_all_cases": "in vivo", "key": {"[1]": {"tested_on": "upland rice (Oryza sp., var. Tebonnet, RICE)", "assay": "Pre-emerge test, crop safety", "settings": "rated 14 days after application, 0 = no damage, 100 = complete death", "method_in_brief": "(§1)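 Fourteen days after spraying, crop and weed injury was graded visually from 0, no effect, to 100, every plant dead. Test substances were dissolved in acetone and applied at 15–1000 g ai/ha with a flat-fan nozzle. Application was either pre-emergence, one day after sowing, or post-emergence at the 2–3 leaf stage.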"}, "[2]": {"tested_on": "field corn (Zea mays L., var. Dekalb 535, CORN)", "assay": "Pre-emerge test, crop safety", "settings": "rated 14 days after application, 0 = no damage, 100 = complete death", "method_in_brief": "as §1"}, "[3]": {"tested_on": "upland rice (Oryza sp., var. Tebonnet, RICE)", "assay": "Post-emerge test, crop safety", "settings": "post-emerge, 14 days after application, rating scale 0-100", "method_in_brief": "(§2)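 Compounds in acetone were track-sprayed at 15-1000 g ai/ha (187 l/ha) on sandy loam pots: pre-emerge one day after seeding, post-emerge at 2-3 leaf stage with 0.25% v/v non-ionic surfactant. Phytotoxicity was rated 14 days later on a 0 (no damage) to 100 (complete death) scale.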"}, "[4]": {"tested_on": "field corn (Zea mays L., var. Dekalb 535, CORN)", "assay": "Post-emerge test, crop safety", "settings": "post-emerge, 14 days after application, rating scale 0-100", "method_in_brief": "as §2"}, "[5]": {"tested_on": "velvetleaf (Abutilon theophrasti, ABUTH)", "assay": "Pre-emerge test, greenhouse herbicide activity screening", "settings": "rated 14 days after application, 0 = no damage, 100 = complete death", "method_in_brief": "as §2"}, "[6]": {"tested_on": "lambsquarters (Chenopodium album, CHEAL)", "assay": "Pre-emerge test, greenhouse herbicide activity screening", "settings": "rated 14 days after application, 0 = no damage, 100 = complete death", "method_in_brief": "as §2"}, "[7]": {"tested_on": "ivyleaf morningglory (Ipomoea hederacea, IPOHE)", "assay": "Pre-emerge test, greenhouse herbicide activity screening", "settings": "rated 14 days after application, 0 = no damage, 100 = complete death", "method_in_brief": "as §2"}, "[8]": {"tested_on": "johnsongrass (Sorghum halepense, SORHA)", "assay": "Pre-emerge test, greenhouse herbicide activity screening", "settings": "rated 14 days after application, 0 = no damage, 100 = complete death", "method_in_brief": "as §2"}, "[9]": {"tested_on": "sicklepod (Cassia obtusifolia, CASOB)", "assay": "Pre-emerge test, greenhouse herbicide activity screening", "settings": "rated 14 days after application, 0 = no damage, 100 = complete death", "method_in_brief": "as §2"}, "[10]": {"tested_on": "large crabgrass (Digitaria sanguinalis, DIGSA)", "assay": "Pre-emerge test, greenhouse herbicide activity screening", "settings": "rated 14 days after application, 0 = no damage, 100 = complete death", "method_in_brief": "as §2"}, "[11]": {"tested_on": "barnyardgrass (Echinochloa crus-galli, ECHCG)", "assay": "Pre-emerge test, greenhouse herbicide activity screening", "settings": "rated 14 days after application, 0 = no damage, 100 = complete death", "method_in_brief": "as §2"}, "[12]": {"tested_on": "green foxtail (Setaria viridis, SETVI)", "assay": "Pre-emerge test, greenhouse herbicide activity screening", "settings": "rated 14 days after application, 0 = no damage, 100 = complete death", "method_in_brief": "as §2"}, "[13]": {"tested_on": "velvetleaf (Abutilon theophrasti, ABUTH)", "assay": "Post-emerge test, greenhouse herbicide activity screening", "settings": "post-emerge, 14 days after application, rating scale 0-100", "method_in_brief": "(§3)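 Compounds in acetone were track-sprayed at 187 l/ha, 15–1000 g ai/ha, onto sandy loam pots. Pre-emerge seeds were sown one day before spraying, with surface watering afterwards. Post-emerge plants were at the 2–3 leaf stage and sprayed with 0.25% v/v non-ionic surfactant. Injury was rated 0–100 at 14 days.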"}, "[14]": {"tested_on": "lambsquarters (Chenopodium album, CHEAL)", "assay": "Post-emerge test, greenhouse herbicide activity screening", "settings": "post-emerge, 14 days after application, rating scale 0-100", "method_in_brief": "as §3"}, "[15]": {"tested_on": "ivyleaf morningglory (Ipomoea hederacea, IPOHE)", "assay": "Post-emerge test, greenhouse herbicide activity screening", "settings": "post-emerge, 14 days after application, rating scale 0-100", "method_in_brief": "as §3"}, "[16]": {"tested_on": "johnsongrass (Sorghum halepense, SORHA)", "assay": "Post-emerge test, greenhouse herbicide activity screening", "settings": "post-emerge, 14 days after application, rating scale 0-100", "method_in_brief": "as §3"}, "[17]": {"tested_on": "sicklepod (Cassia obtusifolia, CASOB)", "assay": "Post-emerge test, greenhouse herbicide activity screening", "settings": "post-emerge, 14 days after application, rating scale 0-100", "method_in_brief": "as §3"}, "[18]": {"tested_on": "common ragweed (Ambrosia artemisizfolia L., AMBEL)", "assay": "Post-emerge test, greenhouse herbicide activity screening", "settings": "post-emerge, 14 days after application, rating scale 0-100", "method_in_brief": "as §3"}, "[19]": {"tested_on": "large crabgrass (Digitaria sanguinalis, DIGSA)", "assay": "Post-emerge test, greenhouse herbicide activity screening", "settings": "post-emerge, 14 days after application, rating scale 0-100", "method_in_brief": "as §3"}, "[20]": {"tested_on": "barnyardgrass (Echinochloa crus-galli, ECHCG)", "assay": "Post-emerge test, greenhouse herbicide activity screening", "settings": "post-emerge, 14 days after application, rating scale 0-100", "method_in_brief": "as §3"}, "[21]": {"tested_on": "green foxtail (Setaria viridis, SETVI)", "assay": "Post-emerge test, greenhouse herbicide activity screening", "settings": "post-emerge, 14 days after application, rating scale 0-100", "method_in_brief": "as §3"}, "[22]": {"tested_on": "redroot pigweed (Amaranthus retroflexus, AMARE)", "assay": "Post-emerge test, greenhouse herbicide activity screening", "settings": "post-emerge, 14 days after application, rating scale 0-100", "method_in_brief": "as §3"}, "[23]": {"tested_on": "redroot pigweed (Amaranthus retroflexus, AMARE)", "assay": "Pre-emerge test, greenhouse herbicide activity screening", "settings": "rated 14 days after application, 0 = no damage, 100 = complete death", "method_in_brief": "as §2"}}, "data": [{"molecule": "COc1c(Cl)cc(F)c(-n2c(=O)cc(C(F)(F)F)n(C)c2=O)c1NC(=O)c1cccc2ccccc12", "note": "[2-74]", "values": [{"measurement": "Pre-emerge phytotoxicity rating (0-100), crop damage, RICE", "setting": "[1]; 63 g ai/ha", "value": 30}, {"measurement": "Pre-emerge phytotoxicity rating (0-100), crop damage, RICE", "setting": "[1]; 250 g ai/ha", "value": 60}, {"measurement": "Pre-emerge phytotoxicity rating (0-100), crop damage, CORN", "setting": "[2]; 63 g ai/ha", "value": 0}, {"measurement": "Pre-emerge phytotoxicity rating (0-100), crop damage, CORN", "setting": "[2]; 250 g ai/ha", "value": 15}, {"measurement": "phytotoxicity rating RICE", "setting": "[3]; 63 g ai/ha", "value": 25}, {"measurement": "phytotoxicity rating RICE", "setting": "[3]; 250 g ai/ha", "value": 50}, {"measurement": "phytotoxicity rating CORN", "setting": "[4]; 63 g ai/ha", "value": 0}, {"measurement": "phytotoxicity rating CORN", "setting": "[4]; 250 g ai/ha", "value": 15}, {"measurement": "Pre-emerge Herbicidal Activity, phytotoxicity rating (0-100), ABUTH", "setting": "[5]; 63 g ai/ha", "value": 100}, {"measurement": "Pre-emerge Herbicidal Activity, phytotoxicity rating (0-100), ABUTH", "setting": "[5]; 250 g ai/ha", "value": 100}, {"measurement": "Pre-emerge Herbicidal Activity, phytotoxicity rating (0-100), CHEAL", "setting": "[6]; 63 g ai/ha", "value": 100}, {"measurement": "Pre-emerge Herbicidal Activity, phytotoxicity rating (0-100), CHEAL", "setting": "[6]; 250 g ai/ha", "value": 100}, {"measurement": "Pre-emerge Herbicidal Activity, phytotoxicity rating (0-100), IPOHE", "setting": "[7]; 63 g ai/ha", "value": 0}, {"measurement": "Pre-emerge Herbicidal Activity, phytotoxicity rating (0-100), IPOHE", "setting": "[7]; 250 g ai/ha", "value": 50}, {"measurement": "Pre-emerge Herbicidal Activity, phytotoxicity rating (0-100), SORHA", "setting": "[8]; 63 g ai/ha", "value": 0}, {"measurement": "Pre-emerge Herbicidal Activity, phytotoxicity rating (0-100), SORHA", "setting": "[8]; 250 g ai/ha", "value": 100}, {"measurement": "Pre-emerge Herbicidal Activity, phytotoxicity rating (0-100), CASOB", "setting": "[9]; 63 g ai/ha", "value": 40}, {"measurement": "Pre-emerge Herbicidal Activity, phytotoxicity rating (0-100), CASOB", "setting": "[9]; 250 g ai/ha", "value": 70}, {"measurement": "Pre-emerge Herbicidal Activity, phytotoxicity rating (0-100), DIGSA", "setting": "[10]; 63 g ai/ha", "value": 20}, {"measurement": "Pre-emerge Herbicidal Activity, phytotoxicity rating (0-100), DIGSA", "setting": "[10]; 250 g ai/ha", "value": 100}, {"measurement": "Pre-emerge Herbicidal Activity, phytotoxicity rating (0-100), ECHCG", "setting": "[11]; 63 g ai/ha", "value": 0}, {"measurement": "Pre-emerge Herbicidal Activity, phytotoxicity rating (0-100), ECHCG", "setting": "[11]; 250 g ai/ha", "value": 100}, {"measurement": "Pre-emerge Herbicidal Activity, phytotoxicity rating (0-100), SETVI", "setting": "[12]; 63 g ai/ha", "value": 70}, {"measurement": "Pre-emerge Herbicidal Activity, phytotoxicity rating (0-100), SETVI", "setting": "[12]; 250 g ai/ha", "value": 100}, {"measurement": "phytotoxicity rating ABUTH", "setting": "[13]; 63 g ai/ha", "value": 100}, {"measurement": "phytotoxicity rating ABUTH", "setting": "[13]; 250 g ai/ha", "value": 100}, {"measurement": "phytotoxicity rating CHEAL", "setting": "[14]; 63 g ai/ha", "value": 70}, {"measurement": "phytotoxicity rating CHEAL", "setting": "[14]; 250 g ai/ha", "value": 70}, {"measurement": "phytotoxicity rating IPOHE", "setting": "[15]; 63 g ai/ha", "value": 60}, {"measurement": "phytotoxicity rating IPOHE", "setting": "[15]; 250 g ai/ha", "value": 60}, {"measurement": "phytotoxicity rating SORHA", "setting": "[16]; 63 g ai/ha", "value": 0}, {"measurement": "phytotoxicity rating SORHA", "setting": "[16]; 250 g ai/ha", "value": 0}, {"measurement": "phytotoxicity rating CASOB", "setting": "[17]; 63 g ai/ha", "value": 30}, {"measurement": "phytotoxicity rating CASOB", "setting": "[17]; 250 g ai/ha", "value": 70}, {"measurement": "phytotoxicity rating AMBEL", "setting": "[18]; 63 g ai/ha", "value": 70}, {"measurement": "phytotoxicity rating AMBEL", "setting": "[18]; 250 g ai/ha", "value": 95}, {"measurement": "phytotoxicity rating DIGSA", "setting": "[19]; 63 g ai/ha", "value": 0}, {"measurement": "phytotoxicity rating DIGSA", "setting": "[19]; 250 g ai/ha", "value": 0}, {"measurement": "phytotoxicity rating ECHCG", "setting": "[20]; 63 g ai/ha", "value": 0}, {"measurement": "phytotoxicity rating ECHCG", "setting": "[20]; 250 g ai/ha", "value": 0}, {"measurement": "phytotoxicity rating SETVI", "setting": "[21]; 63 g ai/ha", "value": 0}, {"measurement": "phytotoxicity rating SETVI", "setting": "[21]; 250 g ai/ha", "value": 20}, {"measurement": "phytotoxicity rating AMARE", "setting": "[22]; 63 g ai/ha", "value": 95}, {"measurement": "phytotoxicity rating AMARE", "setting": "[22]; 250 g ai/ha", "value": 100}, {"measurement": "Pre-emerge Herbicidal Activity, phytotoxicity rating (0-100), AMARE", "setting": "[23]; 63 g ai/ha", "value": 100}, {"measurement": "Pre-emerge Herbicidal Activity, phytotoxicity rating (0-100), AMARE", "setting": "[23]; 250 g ai/ha", "value": 100}]}]}
